Patent US20030176366A1, “Topical application of ascorbic acid compounds for augmenting the synthesis of epidermal ceramides” (SOCIETE L'OREAL S.A., priority 2000, published 2003)

How the values were obtained:
[1] = tested on: reconstructed epidermes; test: Lipid profile of treated reconstructed epidermes (densitometric analysis); type: cell-based; settings: applied for 6 days at 1.10×10^−4 M; relative to the control and relative to ascorbic acid; not quantified
Description: The test described in Example 1 was repeated using various ascorbic acid derivatives, applied for 6 days at 1.10×10^-4 M on reconstructed […] subjected to 7 days of culture. The quantity of epidermal ceramides produced was, however, not quantified. Instead, a densitometric analysis was carried out using a CAMAG TLC® model Scanner 3 densitometric reader. The lipid profile of the treated […] determined, in which: The lipid content was determined of the sample of reconstructed epidermis either untreated (control), or treated with ascorbic acid (vitamin C) or with one of the ascorbic acid derivatives A to G indicated above.

[2] = tested on: skin equivalent marketed by EPISKIN; test: Effect on the synthesis of epidermal lipids in EPISKIN skin equivalent (HPTLC, densitometry); type: cell-based; settings: for percentage increase in Ceramides 4-7 relative to the untreated control / percentage increase in cer. 6-7 relative to the untreated control: treated for five days
Description: Ascorbyl glucoside and ascorbic acid itself were tested on a skin equivalent marketed by EPISKIN (Lyon, France), after culturing the latter for 7 days. The culture and assay media were those contained in the kit marketed by the supplier. Each compound was tested at 5 μg/ml and 0.05 μg/ml (as vitamin C equivalent) in the culture medium. The reconstructed epidermes were treated for five days, the culture medium being replaced every 48 hours. The control consisted of an identical epidermis equivalent which was subjected to topical application of culture medium without the compound to be tested.
At the end of the incubation period, the epidermis equivalent was detached from its collagenic support. The preparation of the lipids of the epidermis equivalent and their analysis by HPTLC or high-performance thin-layer chromatography were carried out according to the technique and with the buffers described by M. Ponec (1991, Adv. Lipid Res., 24:83-117). At the end of the migration, densitometric analysis was carried out using a CAMAG TLC model Scanner 3 densitometric reader.
The results obtained are reported in the Table below as a percentage increase in ceramides 4, 5, 6 and 7 relative to the untreated control.

[3] = 0.05 μg/ml as vitamin C equiv. in culture medium
[4] = 5 μg/ml as vitamin C equiv. in culture medium

Structure (SMILES): COC(=O)COC1=C(OCC(=O)OC)C(C(O)CO)OC1=O (stereo not shown) [Compound E, ascorbyl 2,3-bis(methoxycarbonyl-methoxy) ether, reference compound]
- polar ceramide content of reconstructed epidermes / effect on epidermal lipogenesis [1]: no significant effect on the epidermal lipogenesis

Structure (SMILES): CC1(C)OCC(C2OC(=O)C(O[C@H]3O[C@H](CO)[C@@H](O)[C@H](O)[C@H]3O)=C2O)O1 (stereo partly drawn) [Compound A, 2-O-α-D-glucopyranosyl of (5,6-isopropylidene)ascorbic acid]
- polar ceramide content of reconstructed epidermes / effect on epidermal lipogenesis [1]: significantly increases the polar ceramide content

Structure (SMILES): O=C1O[C@H]([C@@H](O)CO)C(O)=C1O [ascorbic acid]
- percentage increase in Ceramides 4-7 relative to the untreated control [2, 3]: +7%
- percentage increase in cer. 6-7 relative to the untreated control [2, 3]: +15%
- percentage increase in Ceramides 4-7 relative to the untreated control [2, 4]: +21%
- percentage increase in cer. 6-7 relative to the untreated control [2, 4]: −17%

Structure (SMILES): CCCCCCCCCCCCCCCC(=O)OC1=C(O)C(C2COC(C)(C)O2)OC1=O (stereo not shown) [Compound D, (5,6-isopropylidene)ascorbyl 2-hexadecanoate]
- polar ceramide content of reconstructed epidermes / effect on epidermal lipogenesis [1]: significantly increases the polar ceramide content

Structure (SMILES): O=C1O[C@H]([C@@H](O)CO)C(O)=C1O[C@H]1O[C@H](CO)[C@@H](O)[C@H](O)[C@H]1O [ascorbyl glucoside, 2-O-α-D-glucopyranosyl of L-ascorbic acid]
- percentage increase in Ceramides 4-7 relative to the untreated control [2, 3]: +11%
- percentage increase in cer. 6-7 relative to the untreated control [2, 3]: +65%
- percentage increase in Ceramides 4-7 relative to the untreated control [2, 4]: +40%
- percentage increase in cer. 6-7 relative to the untreated control [2, 4]: +59%
- increase in the synthesis of the epidermal lipids (in particular of the most polar ceramides) compared with ascorbic acid ([2]; tested at the same concentration as ascorbic acid): much higher for ascorbyl glucoside than for ascorbic acid

Structure (SMILES): CC1(C)OCC(C2OC(=O)C(OC(=O)c3ccccc3)=C2O)O1 (stereo not shown) [Compound G, (5,6-isopropylidene)ascorbyl 2-benzoate]
- polar ceramide content of reconstructed epidermes / effect on epidermal lipogenesis [1]: significantly increases the polar ceramide content

Structure (SMILES): O=C(/C=C/c1ccccc1)OC1=C(O)[C@@H]([C@@H](O)CO)OC1=O [Compound B, ascorbyl 2-cinnamate]
- polar ceramide content of reconstructed epidermes / effect on epidermal lipogenesis [1]: significantly increases the polar ceramide content

Structure (SMILES): COc1cc(/C=C/C(=O)OC2=C(O)[C@@H]([C@@H](O)CO)OC2=O)ccc1O [Compound C, ascorbyl 2-ferulate]
- polar ceramide content of reconstructed epidermes / effect on epidermal lipogenesis [1]: significantly increases the polar ceramide content

Structure (SMILES): O=C1O[C@H]([C@@H](O)CO)C(O)=C1OS(=O)(=O)[O-].O=C1O[C@H]([C@@H](O)CO)C(O)=C1OS(=O)(=O)[O-].[Ba+2] [Compound F, barium 2-ascorbyl sulfate, reference compound]
- polar ceramide content of reconstructed epidermes / effect on epidermal lipogenesis [1]: no significant effect on the epidermal lipogenesis
